Measured values published in PubChem BioAssay AID1918952 (Molecular Pharmacology Branch, DTP, NCI, 2023).
pIC50: −log10 of the molar value. Values joined by “and” are separate entries in the source; they are usually repeats but may differ in a detail not shown here. Equal entries are not always repeated.

System: LG0703-F948-PDC complex spheroid viability
Assay: Anticancer human tumor LG0703-F948-PDC patient-derived lung adenocarcinoma cell line growth inhibition
Conditions: for viability, T/C: stronger effect = lower value; for pIC50: curve of compound
Excerpt: Multicellular complex tumor spheroid response to LSD1 Inhibitor Iadademstat in combination with a variety of drugs and investigational agents in selected tumor cell lines
The current study was undertaken to assess response to LSD1 inhibitors in combination with standard-of-care drugs and investigational agents in solid tumor complex spheroid models as well as in the K-562 leukemia. Complex spheroids include a stromal component modeled by human endothelial cells (HUVEC) and fibroblasts modeled by human mesenchymal stem cells (MSCs). The concentration ranges selected for each drug and investigational agent were based upon clinically achievable concentrations if the clinical Cmax of the agent was known.
Compounds. The drugs and investigational agents used in this study are listed on Table 1. All of the agents used, including staurosporine (NSC755774) and gemcitabine (NSC613327), were obtained from the Developmental Therapeutics Program, NCI. FDA-approved anticancer drugs are available from the NCI at http://dtp.nci.nih.gov/branches/dscb/oncology_drugset_explanation.html. Drugs and investigational agents were >95% pure by proton nuclear magnetic resonance (NMR) and liquid chromatography/mass spectrometry (LC/MS). Stock solutions were prepared at 400x in DMSO, stored at -70 degrees C, and diluted in fresh medium prior to their use. The final concentration of DMSO in cell culture wells never exceeded 0.25% (v/v). The FDA-approved anticancer drug set is available from the Developmental Therapeutics Program at https://dtp.cancer.gov/organization/dscb/obtaining/available_plates.htm. All drugs and investigational agents were tested over a range starting from a high concentration at or near the clinical Cmax and decreasing in half-log increments. If the clinical Cmax for an agent had not been determined, the highest concentration tested was 10 microM.
Cell Lines. The patient-derived cancer cell (PDC) lines: 292921-168-R-J2-PDC, K24384-001-R-PDC, and 521955-158-R2-J5-PDC pancreatic carcinomas, 556581-035-R-J1 ovarian carcinoma, 324938-238-R-J1-PDC, 855422-203-R-J1-PDC and 883617-216-R-J1-PDC urothelial bladder carcinomas, 743489-274-T-PDC renal cell carcinoma, 138582-R-J1 Merkel cell tumor, K60290-347-R-J1 and K57222-313-R-J1-PDC glioblastomas, 653999-131-R-J2-PDC, LG0703-F948-PDC, and 349418-098-R-PDC non-small cell lung carcinomas, 885512-296-R-J2-PDC, 171881-019-R-J1-PDC breast carcinomas and 186277-243-T-J2-PDC and 233499-124-R-J2-PDC colon carcinomas were obtained from the NCI Patient-Derived Models Repository (PDMR, https://pdmr.cancer.gov). The established cell lines NCI/ADR-RES (RRID:CVCL_14520 and OVCAR-5 (RRID:CVCL_1628) ovarian carcinomas, 786-O (RRID:CVCL_1051) and A498 (RRID:CVCL_A498) renal cell carcinoma, NCI-H211 (ATCC, cat. CRL-5824; RRID:CVCL_1529), NCI-H196 (ATCC, cat. CRL-5823, RRID:CVCL_1509), SW 1271 (ATCC, cat. CRL-2177, RRID:CVCL_1716) and NCI-H1876 (ATCC, cat. CRL-5902, RRID:CVCL_1503) small cell lung carcinomas, MDA-MB-231 (RRID:CVCL_0062) and MDA-MB-468 (RRID:CVCL_0419)breast carcinomas (10-12). Pooled donor human umbilical vein endothelial cells (HUVEC, Lonza, cat. CC-2519) and human mesenchymal stem cells (hMSC, Lonza, cat. PT-2501) were purchased from Lonza (Walkersville, MD).
Cell Culture. All cells were maintained in an incubator at 37 degrees C and 5% CO2 with 95% humidity. The PDC lines were cultured according to standard operating procedures established by the NCI PDMR (https://pdmr.cancer.gov). Briefly all PDCs were thawed and cultured in Matrigel-coated flasks prepared with a working solution of 1X Ham's F-12 nutrient mix, without supplementation (Invitrogen, Waltham, MA, cat. 11765054), 100 U/mL penicillin-streptomycin (Invitrogen, cat. 15140122), and 2.5% Matrigel (Corning Inc., Corning, NY, cat. 354248) for the first three passages. […]
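Further: spheroids exposed to agents for seven days before readout.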
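Wherever viability, T/C is given: 100% = DMSO vehicle control wells as normalization base.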

SMILES	pIC50	viability, T/C (compound 0.000316 µM)	viability, T/C (compound 0.001 µM)	viability, T/C (compound 0.00316 µM)	viability, T/C (compound 0.01 µM)	viability, T/C (compound 0.0316 µM)	viability, T/C (compound 0.1 µM)	viability, T/C (compound 0.316 µM)	viability, T/C (compound 1 µM)	viability, T/C (compound 3.16 µM)	viability, T/C (compound 10 µM)	viability, T/C (compound 0.00949 µM)	viability, T/C (compound 0.03 µM)	viability, T/C (compound 0.0949 µM)	viability, T/C (compound 0.3 µM)	viability, T/C (compound 0.949 µM)	viability, T/C (compound 3 µM)	viability, T/C (compound 0.000949 µM)	viability, T/C (compound 0.003 µM)
CC(C)CC(NC(=O)CNC(=O)c1cc(Cl)ccc1Cl)B1OC(=O)CC(CC(=O)O)(C(=O)O)O1 (configuration not stated)	8.30 and 8.41	102% and 100%	104% and 92.3%	68.4% and 56.8%	21.7% and 15.9%	3.57% and 2.13%	0.76% and 0.44%												
CC(C)c1c(-c2ccccc2)nc2c(C#N)c[nH]n2c1=O	< 5.00					106% and 93%	91.8% and 84.6%	84.1% and 102%	100% and 86.9%	89.7% and 91%	75.7% and 79.8%								
CC1(C)CCC(CN2CCN(c3ccc(C(=O)NS(=O)(=O)c4ccc(NCC5CCOCC5)c([N+](=O)[O-])c4)c(Oc4cnc5[nH]ccc5c4)c3)CC2)=C(c2ccc(Cl)cc2)C1	5.62 and 5.49					87% and 94.2%	98.5% and 93.8%	91.7% and 89.7%	96.8% and 84.2%	36.5% and 50.3%	3.78% and 4.3%								
CC1COCCN1c1cc(-c2ccnn2C)c2ccnc(-c3ccn[nH]3)c2n1 (configuration not stated)	7.54 and 7.71			66.6% and 63.7%	59.2% and 61.9%	47.8% and 42.4%	39.4% and 29.3%	28.8% and 27.1%	14% and 10.7%										
CCN(c1cc(-c2ccc(CN3CCOCC3)cc2)cc(C(=O)NCc2c(C)cc(C)[nH]c2=O)c1C)C1CCOCC1	< 5.52											119% and 92.8%	97.8% and 90.4%	101% and 97.6%	101% and 90.8%	105% and 96%	102% and 96.7%		
CC[C@@]1(O)C(=O)OCc2c1cc1n(c2=O)Cc2cc3c(CN(C)C)c(O)ccc3nc2-1	7.12 and 7.18	111% and 107%	97% and 103%	96.5% and 94.7%	92.4% and 88.5%	65.7% and 67.3%	44.6% and 40.1%												

Now from value to compound, other results behind:

pIC50	SMILES	viability, T/C (compound 0.000316 µM)	viability, T/C (compound 0.001 µM)	viability, T/C (compound 0.00316 µM)	viability, T/C (compound 0.01 µM)	viability, T/C (compound 0.0316 µM)	viability, T/C (compound 0.1 µM)	viability, T/C (compound 0.316 µM)	viability, T/C (compound 1 µM)	viability, T/C (compound 3.16 µM)	viability, T/C (compound 10 µM)	viability, T/C (compound 0.00949 µM)	viability, T/C (compound 0.03 µM)	viability, T/C (compound 0.0949 µM)	viability, T/C (compound 0.3 µM)	viability, T/C (compound 0.949 µM)	viability, T/C (compound 3 µM)	viability, T/C (compound 0.000949 µM)	viability, T/C (compound 0.003 µM)
> 9.50	CC(C)CC(NC(=O)C(Cc1ccccc1)NC(=O)c1cnccn1)B(O)O (configuration not stated)	11.1% and 6.84%	1.41% and 0.31%	0.63% and 0.15%	0.17%	0.14% and 0.17%	0.21% and 0.29%												
5.33 and 5.34	CC1COCCN1c1cc(C2(S(C)(=N)=O)CC2)nc(-c2ccnc3[nH]ccc23)n1 (configuration not stated)					105% and 90.8%	101% and 105%	104% and 100%	87.4% and 81.6%	63% and 65.7%	24.9% and 20.9%								
> 9.02 and 9.00	CCc1c2c(nc3ccc(O)cc13)-c1cc3c(c(=O)n1C2)COC(=O)[C@]3(O)CC											21.1% and 17.5%	12.4% and 14.2%	9.01% and 6.61%	4.04% and 3.45%			46.8% and 51.2%	28.6% and 31%
< 5.52	COc1cc(C2c3cc4c(cc3C(OC3OC5COC(C)OC5C(O)C3O)C3COC(=O)C23)OCO4)cc(OC)c1O (configuration not stated)											91.2% and 110%	86.7% and 112%	83% and 88.5%	77% and 84.2%	75% and 81.7%	49.3% and 59.2%		
6.69 and 6.71	COc1cc(Nc2ncc3c(n2)-c2ccc(Cl)cc2C(c2c(F)cccc2OC)=NC3)ccc1C(=O)O			76.9% and 95.7%	79.1% and 75.3%	76.3% and 75.3%	67.7% and 64.7%	39.2% and 42.6%	5.79% and 5.84%										
